Laboratory results taken from patent publication US8106055B2, “Substituted amide compounds” (Gruenenthal GmbH, priority 2007, dated 2012).

Each compound was assayed against T1, human μ opiate receptor (Homo sapiens, UniProt P35372) (assay: Affinity for the human μ opiate receptor ([3H]-naloxone displacement, CHO-K1 receptor membrane preparation, SPA)). Details: test concentration of 1 μM; read-out: μ (binding on the μ opioid receptor, % inhibition).
T1 construct: purchased PerkinElmer Life Sciences, Zaventem, Belgium RB-HOM; host or cells: CHO-K1 cells (membrane preparation)
Type: binding
Method in brief: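 Readout is percent displacement of [3H]-naloxone (1 nmol/l) from human μ receptor in CHO-K1 membranes, measured at 1 μmol/l compound. Incubation runs 90 minutes at room temperature with WGA-SPA beads in Tris-HCl/BSA buffer; non-specific binding is defined with 100 μmol/l naloxone.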

T1 sequence (P35372 whole entry): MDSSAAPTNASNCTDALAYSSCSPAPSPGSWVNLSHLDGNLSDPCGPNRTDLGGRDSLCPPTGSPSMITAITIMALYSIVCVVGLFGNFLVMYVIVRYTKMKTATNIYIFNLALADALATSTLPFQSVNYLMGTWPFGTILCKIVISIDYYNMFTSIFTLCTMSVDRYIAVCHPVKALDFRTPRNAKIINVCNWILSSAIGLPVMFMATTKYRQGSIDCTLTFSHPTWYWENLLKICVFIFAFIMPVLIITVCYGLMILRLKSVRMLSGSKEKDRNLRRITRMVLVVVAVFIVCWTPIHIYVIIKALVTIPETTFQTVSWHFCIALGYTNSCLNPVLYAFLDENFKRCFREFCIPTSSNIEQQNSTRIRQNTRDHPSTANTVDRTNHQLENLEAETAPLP

First: CN(C)C(c1cccs1)C1CCC(CCNC(=O)COC2CCN(S(=O)(=O)c3ccc(Cl)cc3Cl)C2)CC1 (stereo not shown) [Example 21, 2-(1-(2,4-dichlorophenylsulfonyl)pyrrolidin-3-yloxy)-N-(2-(4-((dimethylamino)(thiophen-2-yl)methyl)cyclohexyl)ethyl)acetamide]
Second: CN(C)C(c1cccs1)C1CCC(CCNC(=O)COC2CCN(S(=O)(=O)c3ccc(F)cc3)C2)CC1 (stereo not shown) [Example 138, N-(2-(4-((dimethylamino)(thiophen-2-yl)methyl)cyclohexyl)ethyl)-2-(1-(4-fluorophenylsulfonyl)pyrrolidin-3-yloxy)acetamide]
The inhibition at 1 µM of the first is higher: 97% for the first, 87% for the second.

COc1ccc(S(=O)(=O)N2CCC(OCC(=O)NCC3CCC(C(c4ccccc4)N(C)C)CC3)C2)cc1OC (stereo not shown) [Example 22, 2-(1-(3,4-dimethoxyphenylsulfonyl)pyrrolidin-3-yloxy)-N-((4-((dimethylamino)(phenyl)methyl)cyclohexyl)methyl)acetamide] and COc1ccc(S(=O)(=O)N2CCC(OCC(=O)NCC3CCC(C(c4cccs4)N(C)C)CC3)C2)cc1OC (stereo not shown) [Example 23, 2-(1-(3,4-dimethoxyphenylsulfonyl)pyrrolidin-3-yloxy)-N-((4-((dimethylamino)(thiophen-2-yl)methyl)cyclohexyl)methyl)acetamide] are the same in inhibition at 1 µM: 97% for the first, 97% for the second.

Going from CN(C)C(c1cccs1)C1CCC(CNC(=O)COC2CCN(S(=O)(=O)c3cccc(C(F)(F)F)c3)C2)CC1 (stereo not shown) [Example 25, N-((4-((dimethylamino)(thiophen-2-yl)methyl)cyclohexyl)methyl)-2-(1-(3-(trifluoromethyl)phenylsulfonyl)pyrrolidin-3-yloxy)acetamide] to CN(C)C(c1cccc(F)c1)C1CCC(NC(=O)COC2CCN(S(=O)(=O)c3cccc(C(F)(F)F)c3)C2)CC1 (stereo not shown) [Example 139, N-(4-((dimethylamino)(3-fluorophenyl)methyl)cyclohexyl)-2-(1-(3-(trifluoromethyl)phenylsulfonyl)pyrrolidin-3-yloxy)acetamide], the inhibition at 1 µM falls from 97% to 83%.

Going from Cc1cc(C)c(S(=O)(=O)N2CCC(OCC(=O)NCC3CCC(C(c4ccccc4)N(C)C)CC3)C2)c(C)c1 (stereo not shown) [Example 26, N-((4-((dimethylamino)(phenyl)methyl)cyclohexyl)methyl)-2-(1-(mesitylsulfonyl)pyrrolidin-3-yloxy)acetamide] to Cc1cc(C)c(S(=O)(=O)N2CCC(OCC(=O)NCC3CCC(C(c4cccc(F)c4)N(C)C)CC3)C2)c(C)c1 (stereo not shown) [Example 141, N-((4-((dimethylamino)(3-fluorophenyl)methyl)cyclohexyl)methyl)-2-(1-(mesitylsulfonyl)pyrrolidin-3-yloxy)acetamide], the inhibition at 1 µM falls from 97% to 88%.

Compared with Cc1cc(C)c(S(=O)(=O)N2CCC(OCC(=O)NCC3CCC(C(c4cccs4)N(C)C)CC3)C2)c(C)c1 (stereo not shown) [Example 27, N-((4-((dimethylamino)(thiophen-2-yl)methyl)cyclohexyl)methyl)-2-(1-(mesitylsulfonyl)pyrrolidin-3-yloxy)acetamide], Cc1cc(C)c(S(=O)(=O)N2CCC(OCC(=O)NC3CCC(C(c4cccc(F)c4)N(C)C)CC3)C2)c(C)c1 (stereo not shown) [Example 140, N-(4-((dimethylamino)(3-fluorophenyl)methyl)cyclohexyl)-2-(1-(mesitylsulfonyl)pyrrolidin-3-yloxy)acetamide] is lower in inhibition at 1 µM: 97% for the first, 83% for the second.

Compared with CN(C)C(c1cccs1)C1CCC(NC(=O)COC2CCN(S(=O)(=O)c3ccc(F)cc3)C2)CC1 (stereo not shown) [Example 28, N-(4-((dimethylamino)(thiophen-2-yl)methyl)cyclohexyl)-2-(1-(4-fluorophenylsulfonyl)pyrrolidin-3-yloxy)acetamide], COc1cc(C)c(S(=O)(=O)N2CCCC(OCC(=O)NC3CCC(C(c4cccs4)N(C)C)CC3)C2)c(C)c1C (stereo not shown) [Example 144, N-(4-((dimethylamino)(thiophen-2-yl)methyl)cyclohexyl)-2-(1-(4-methoxy-2,3,6-trimethylphenylsulfonyl)piperidin-3-yloxy)acetamide] is lower in inhibition at 1 µM: 97% for the first, 89% for the second.

First: COc1cc(C)c(S(=O)(=O)N2CCCC(OCC(=O)NCC3CCC(C(c4ccccc4)N(C)C)CC3)C2)c(C)c1C (stereo not shown) [Example 29, N-((4-((dimethylamino)(phenyl)methyl)cyclohexyl)methyl)-2-(1-(4-methoxy-2,3,6-trimethylphenylsulfonyl)piperidin-3-yloxy)acetamide]
Second: COc1cc(C)c(S(=O)(=O)N2CCC(OCC(=O)NCC3CCC(C(c4ccccc4)N(C)C)CC3)CC2)c(C)c1C (stereo not shown) [Example 143, N-((4-((dimethylamino)(phenyl)methyl)cyclohexyl)methyl)-2-(1-(4-methoxy-2,3,6-trimethylphenylsulfonyl)piperidin-4-yloxy)acetamide]
The inhibition at 1 µM of the first is higher: 97% for the first, 89% for the second.

Compared with COc1ccc(S(=O)(=O)N2CCCCC2COCC(=O)NCCC2CCC(C(c3cccs3)N(C)C)CC2)cc1 (stereo not shown) [Example 30, N-(2-(4-((dimethylamino)(thiophen-2-yl)methyl)cyclohexyl)ethyl)-2-((1-(4-methoxyphenylsulfonyl)piperidin-2-yl)methoxy)acetamide], CN(C)C(c1cccc(F)c1)C1CCC(CCNC(=O)COCC2CCCCN2S(=O)(=O)c2ccc(Cl)c(Cl)c2)CC1 (stereo not shown) [Example 147, 2-((1-(3,4-dichlorophenylsulfonyl)piperidin-2-yl)methoxy)-N-(2-(4-((dimethylamino)(3-fluorophenyl)methyl)cyclohexyl)ethyl)acetamide] is lower in inhibition at 1 µM: 97% for the first, 90% for the second.

Going from CN(C)C(c1cccs1)C1CCC(CNC(=O)COC2CCCCC2N(C)S(=O)(=O)c2ccc(Cl)c(Cl)c2)CC1 (stereo not shown) [Example 31, 2-(2-(3,4-dichloro-N-methylphenylsulfonamido)cyclohexyloxy)-N-((4-((dimethylamino)(thiophen-2-yl)methyl)cyclohexyl)methyl)acetamide] to COc1ccc(S(=O)(=O)N(C)CCOCC(=O)NCC2CCC(C(c3cccs3)N(C)C)CC2)cc1 (stereo not shown) [Example 142, N-((4-((dimethylamino)(thiophen-2-yl)methyl)cyclohexyl)methyl)-2-(2-(4-methoxy-N-methylphenylsulfonamido)ethoxy)acetamide], the inhibition at 1 µM falls from 97% to 89%.

Compared with CN(C)C(c1cccs1)C1CCC(CCNC(=O)COCCN(C)S(=O)(=O)c2cccc(C(F)(F)F)c2)CC1 (stereo not shown) [Example 32, N-(2-(4-((dimethylamino)(thiophen-2-yl)methyl)cyclohexyl)ethyl)-2-(2-(N-methyl-3-(trifluoromethyl)phenylsulfonamido)ethoxy)acetamide], COc1cc(C)c(S(=O)(=O)N(CCOCC(=O)NCCC2CCC(C(c3cccs3)N(C)C)CC2)Cc2ccccc2)c(C)c1 (stereo not shown) [Example 149, 2-(2-(N-benzyl-4-methoxy-2,6-dimethylphenylsulfonamido)ethoxy)-N-(2-(4-((dimethylamino) (thiophen-2-yl)methyl)cyclohexyl)ethyl)acetamide] is lower in inhibition at 1 µM: 97% for the first, 91% for the second.

Going from CN(C)C(c1ccccc1)C1CCC(NC(=O)COCCN(C)S(=O)(=O)c2ccc(Cl)cc2Cl)CC1 (stereo not shown) [Example 33, 2-(2-(2,4-dichloro-N-methylphenylsulfonamido)ethoxy)-N-(4-((dimethylamino)(phenyl)methyl)cyclohexyl)acetamide] to CN(C)C(c1ccccc1)C1CCC(NC(=O)COCCN(C)S(=O)(=O)c2c(F)c(F)c(F)c(F)c2F)CC1 (stereo not shown) [Example 136, N-(4-((dimethylamino)(phenyl)methyl)cyclohexyl)-2-(2-(2,3,4,5,6-pentafluoro-N-methylphenylsulfonamido)ethoxy)acetamide], the inhibition at 1 µM rises from 49% to 89%.

Going from COc1cc(C)c(S(=O)(=O)N(C)CCOCC(=O)NCC2CCC(C(c3ccccc3)N(C)C)CC2)c(C)c1 (stereo not shown) [Example 137, N-((4-((dimethylamino)(phenyl)methyl)cyclohexyl)methyl)-2-(2-(4-methoxy-N,2,6-trimethylphenylsulfonamido)ethoxy)acetamide] to COc1cc(C)c(S(=O)(=O)N(CCOCC(=O)NCC2CCC(C(c3ccccc3)N(C)C)CC2)Cc2ccccc2)c(C)c1 (stereo not shown) [Example 148, 2-(2-(N-benzyl-4-methoxy-2,6-dimethylphenylsulfonamido)ethoxy)-N-((4-((dimethylamino)(phenyl)methyl)cyclohexyl)methyl)acetamide], the inhibition at 1 µM rises from 89% to 90%.

First: COc1cc(C)c(S(=O)(=O)N2CCCC(OCC(=O)NCC3CCC(C(c4cccc(F)c4)N(C)C)CC3)C2)c(C)c1C (stereo not shown) [Example 145, N-((4-((dimethylamino)(3-fluorophenyl)methyl)cyclohexyl)methyl)-2-(1-(4-methoxy-2,3,6-trimethylphenylsulfonyl)piperidin-3-yloxy)acetamide]
Second: COc1cc(C)c(S(=O)(=O)N2CCC(CCOCC(=O)NCC3CCC(C(c4ccccc4)N(C)C)CC3)CC2)c(C)c1C (stereo not shown) [Example 146, N-((4-((dimethylamino)(phenyl)methyl)cyclohexyl)methyl)-2-(2-(1-(4-methoxy-2,3,6-trimethylphenylsulfonyl)piperidin-4-yl)ethoxy)acetamide]
The inhibition at 1 µM of the first is lower: 87% for the first, 88% for the second.

Compared with COc1ccc(S(=O)(=O)N2CCCCC2COCC(=O)NCC2CCC(C(c3ccccc3)N(C)C)CC2)cc1OC (stereo not shown) [Example 150, 2-((1-(3,4-Dimethoxyphenylsulfonyl)piperidin-2-yl)methoxy)-N-((4-((dimethylamino)(phenyl)methyl)cyclohexyl)methyl)acetamide], COc1ccc(S(=O)(=O)N2CCCCC2COCC(=O)NCC2CCC(C(c3cccc(F)c3)N(C)C)CC2)c(OC)c1 (stereo not shown) [Example 151, 2-((1-(2,4-dimethoxyphenylsulfonyl)piperidin-2-yl)methoxy)-N-((4-((dimethylamino)(3-fluorophenyl)methyl)cyclohexyl)methyl)acetamide] is higher in inhibition at 1 µM: 86% for the first, 90% for the second.
